In patent US11000033B2, “Ketone or oxime compound, and herbicide” (NISSAN CHEMICAL CORPORATION, priority 2014, dated 2021):

How the values were obtained:
Assay type in all cases: in vivo
[1] = tested on: soybean; test: Test Example 5: effect on crop by foliage application, plastic box (symbol d); settings: 320 g/ha, 3 weeks after application
Procedure, shortened: (§1)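 Greenhouse culture at 25° C. to 30° C. followed spot-like sowing into sterilized diluvial soil, with seed covered by roughly 1.5 cm of soil.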

[2] = tested on: Setaria viridis; test: Test Example 5: herbicidal effect by foliage application, plastic box (symbol G); settings: 320 g/ha, 3 weeks after application
Procedure, shortened: (§2)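 After sowing into sterilized diluvial soil and growing two weeks under glass at 25° C. to 30° C., seedlings receive a uniform foliar spray of diluted emulsion. Damage is judged visually three weeks on.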

[3] = tested on: soybean; test: Test Example 4: effect on crop by soil treatment (symbol d); settings: for Effect on crop grade, d: soybean: application herbicide amount 320 g/ha
Procedure, shortened: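 Seeds were sown in spots on sterilized diluvial soil in a plastic box and covered with about 1.5 cm of soil. Plants were then grown in a greenhouse at 25° C. to 30° C.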

[4] = tested on: Setaria viridis; test: Test Example 4: herbicidal effect by soil treatment (symbol G); settings: for Herbicidal effect grade, G: Setaria viridis: application herbicide amount 320 g/ha
Procedure, shortened: (§3)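 Seeds were sown in sterilized diluvial soil, covered with about 1.5 cm of soil, and the soil surface was sprayed with a water-diluted emulsion of the compound at a predetermined rate. Plants grew in a greenhouse at 25° C. to 30° C.; effects were scored visually 3 weeks after application.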

[5] = tested on: Scirpus juncoides; test: Test Example 1: herbicidal activity, application before weed generation in submerged conditions (symbol B); settings: application herbicide amount 320 g/ha
Procedure, shortened: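 Scores run 0 to 5 by herbicidal ratio, with 5 meaning 90% or more and 0 meaning 5% or lower, read 3 weeks after treatment. Compound was applied as a diluted emulsion to the water surface of submerged alluvial-soil pots on the day weed seeds were sown.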

[6] = tested on: Veronica persica; test: Test Example 4: herbicidal effect by soil treatment (symbol R); settings: for Herbicidal effect grade, R: Veronica persica: application herbicide amount 320 g/ha
Description: Herbicidal Effect Test by Soil Treatment
Sterilized diluvial soil was placed in a plastic box having a length of 21 cm, a width of 13 cm, and a depth of 7 cm. Each of the seeds of Digitaria ciliaris, Setaria viridis, Echinochloa crus-galli var. crus-galli, Avena fatua, Alopecurus myosuroides, Lolium multiflorum Lam., Apera spica-venti, Abutilon theophrasti, Amaranthus retroflexus, Chenopodium album, Stellaria media, Galium spurium, Veronica persica, corn, soybean, rice, wheat, beet, and rapeseed was sowed in a spot-like manner and was covered with the soil of a thickness of about 1.5 cm. Subsequently, the emulsion agent of the compound present invention prepared in accordance with Formulation Example 2 was diluted with water so as to be a predetermined herbicide amount and the diluted emulsion agent was uniformly applied to the surface of the soil with a small-size spray. The plastic box was placed in a greenhouse of 25° C. to 30° C. to grow plant. 3 weeks later from the herbicide application, the effect to each plant was investigated in accordance with the criteria of Test Example 1.

[7] = tested on: Stellaria media; test: Test Example 4: herbicidal effect by soil treatment (symbol P); settings: 320 g/ha
Procedure, shortened: as §3

[8] = tested on: rapeseed; test: Test Example 5: effect on crop by foliage application, plastic box (symbol g); settings: 320 g/ha, 3 weeks after application
Procedure, shortened: as §1

[9] = tested on: Echinochloa crus-galli var. crus-galli; test: Test Example 4: herbicidal effect by soil treatment (symbol H); settings: for Herbicidal effect grade, H: Echinochloa crus-galli var. crus-galli: application herbicide amount 320 g/ha
Procedure, shortened: as §3

[10] = tested on: Echinochloa crus-galli var. crus-galli; test: Test Example 5: herbicidal effect by foliage application, plastic box (symbol H); settings: 320 g/ha, 3 weeks after application
Procedure, shortened: as §2

[11] = tested on: beet; test: Test Example 5: effect on crop by foliage application, plastic box (symbol f); settings: 320 g/ha, 3 weeks after application
Procedure, shortened: as §1

[12] = tested on: directly sowed rice plant; test: Test Example 3: effect on crop by foliage application, Wagner pot (symbol b); settings: application herbicide amount 320 g/ha; for b (directly sowed rice plant) effect on crop grade: Table 24
Procedure, shortened: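 Greenhouse culture at 25–30 °C of seeded rice, Cyperus difformis, Leptochloa chinensis and Echinochloa crus-galli var. crus-galli, in alluvial soil held under 0.1–0.5 cm of water in a Wagner pot.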

[13] = tested on: Digitaria ciliaris; test: Test Example 4: herbicidal effect by soil treatment (symbol F); settings: for Herbicidal effect grade, F: Digitaria ciliaris: application herbicide amount 320 g/ha
Procedure, shortened: as §3

[14] = tested on: Monochoria vaginalis; test: Test Example 2: herbicidal activity, application during weed generation in submerged conditions (symbol C); settings: Table 23; application herbicide amount 320 g/ha; grade 0-5 by criteria of Test Example 1
Procedure, shortened: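 Read-out: herbicidal effect on each species rated on a visual scale 3 weeks after treatment. Plants were raised together from seed in flooded alluvial soil (4 cm water) at 25° C. to 30° C. and treated at one to two leaves by water-surface application of diluted emulsion.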

Structure (SMILES) | d: soybean, effect on crop grade [1] | G: Setaria viridis, herbicidal effect grade [2] | Effect on crop grade, d: soybean [3] | Herbicidal effect grade, G: Setaria viridis [4] | B (Scirpus juncoides) herbicidal effect grade [5] | Herbicidal effect grade, R: Veronica persica [6] | g: rapeseed, effect on crop grade [8] | Herbicidal effect grade, C: Monochoria vaginalis [14] | Herbicidal effect grade, H: Echinochloa crus-galli var. crus-galli [9] | H: Echinochloa crus-galli var. crus-galli, herbicidal effect grade [10] | f: beet, effect on crop grade [11] | b (directly sowed rice plant) effect on crop grade [12] | Herbicidal effect grade, F: Digitaria ciliaris [13] | also measured
CON=C(C)CC1CC(OC(=O)C#C[Si](C)(C)C)=C(c2c(C)cc(C)cc2C)C1=O (stereo not drawn) [1-096] | – | – | – | – | – | – | – | – | – | – | – | – | – | d: soybean, effect on crop (criteria 0-5) [1]: 3 (Herbicidal ratio of 40% or higher and lower than 70%); G: Setaria viridis, herbicidal effect (criteria 0-5) [2]: 5 (Herbicidal ratio of 90% or more (almost completely withered)); d: soybean, effect grade on crop ([3]; 320 g/ha): 1 (Herbicidal ratio of 5% or higher and lower than 20%); G: Setaria viridis, herbicidal effect grade ([4]; 320 g/ha): 5 (Herbicidal ratio of 90% or more (almost completely withered)); Herbicidal effect grade, B: Scirpus juncoides [5]: 5 (Herbicidal ratio of 90% or more (almost completely withered)); R: Veronica persica, herbicidal effect grade ([6]; 320 g/ha): 0 (Herbicidal ratio of 5% or lower (almost no effect)); P: Stellaria media, herbicidal effect grade [7]: 0 (Herbicidal ratio of 5% or lower (almost no effect)); g: rapeseed, effect on crop (criteria 0-5) [8]: 4 (Herbicidal ratio of 70% or higher and lower than 90%); H: Echinochloa crus-galli var. crus-galli, herbicidal effect grade ([9]; 320 g/ha): 4 (Herbicidal ratio of 70% or higher and lower than 90%); H: Echinochloa crus-galli var. crus-galli, herbicidal effect (criteria 0-5) [10]: 5 (Herbicidal ratio of 90% or more (almost completely withered)); f: beet, effect on crop (criteria 0-5) [11]: 0 (Herbicidal ratio of 5% or lower (almost no effect)); effect on crop b (directly sowed rice plant), grade 0-5 [12]: 5 (Herbicidal ratio of 90% or more (almost completely withered)); F: Digitaria ciliaris, herbicidal effect grade ([13]; 320 g/ha): 5 (Herbicidal ratio of 90% or more (almost completely withered))
COCCON=C(CC1CC(O)=C(c2c(C)cc(-n3cc(Cl)cn3)cc2C)C1=O)C1CC1 (stereo not drawn) [9-020] | 1 (Herbicidal ratio of 5% or higher and lower than 20%) | 5 (Herbicidal ratio of 90% or more (almost completely withered)) | 0 (Herbicidal ratio of 5% or lower (almost no effect)) | 5 (Herbicidal ratio of 90% or more (almost completely withered)) | 4 (Herbicidal ratio of 70% or higher and lower than 90%) | 0 (Herbicidal ratio of 5% or lower (almost no effect)) | 4 (Herbicidal ratio of 70% or higher and lower than 90%) | 0 (Herbicidal ratio of 5% or lower (almost no effect)) | 0 (Herbicidal ratio of 5% or lower (almost no effect)) | 5 (Herbicidal ratio of 90% or more (almost completely withered)) | 0 (Herbicidal ratio of 5% or lower (almost no effect)) | 5 (Herbicidal ratio of 90% or more (almost completely withered)) | 4 (Herbicidal ratio of 70% or higher and lower than 90%) | –
Cc1cc(Br)cc(C)c1C1=C(O)CC(CC(=NOCC(F)(F)F)C2CC2)C1=O (stereo not drawn) [9-009] | 0 (Herbicidal ratio of 5% or lower (almost no effect)) | 5 (Herbicidal ratio of 90% or more (almost completely withered)) | 0 (Herbicidal ratio of 5% or lower (almost no effect)) | 1 (Herbicidal ratio of 5% or higher and lower than 20%) | 0 (Herbicidal ratio of 5% or lower (almost no effect)) | 1 (Herbicidal ratio of 5% or higher and lower than 20%) | 3 (Herbicidal ratio of 40% or higher and lower than 70%) | 0 (Herbicidal ratio of 5% or lower (almost no effect)) | 0 (Herbicidal ratio of 5% or lower (almost no effect)) | 5 (Herbicidal ratio of 90% or more (almost completely withered)) | 0 (Herbicidal ratio of 5% or lower (almost no effect)) | 5 (Herbicidal ratio of 90% or more (almost completely withered)) | 5 (Herbicidal ratio of 90% or more (almost completely withered)) | –
